Assay results reported in US20160347807A1, “TARGETING P53 AND ITS DNA-BINDING DOMAIN” (UNIVERSITY OF UTAH RESEARCH DOUNDATION, priority 2014, published 2016).
Entries after “also recorded” stand apart in the source; their conditions may differ.

Experiments:
T47D cells [1] = assay: Caspase-9 assay (SR FLICA) in T47D cells; assay type: cell-based, human; conditions: 48 h after transfection
Protocol: T47D cells were probed 48 h after transfection using SR FLICA Caspase-9 Assay Kit (Immunochemistry Technologies, Bloomington, Minn.). Cells were incubated with SR FLICA Caspase-9 reagent for 60 min per manufacturer's recommendations, pelleted and resuspended in 300 μL 1× wash buffer (Immunochemistry Technologies). Only EGFP positive cells were analyzed by using the FACS Canto-II (BD-BioSciences) with FACS Diva software. EGFP and FLICA were excited with the 488 nm (emission filter 530/35) and the 561 laser (emission filter 585/15), respectively. Independent transfections of each construct were tested three times (n=3).
As previously described, 48 h after transfection, T47D cells were tested with SR FLICA Caspase-9 Assay Kit (Immunochemistry Technologies, Bloomington, Minn.). Cells were incubated with SR FLICA Caspase-9 reagent for 60 min, pelleted and re-suspended in 300 μL, 1× wash buffer (Immunochemistry Technologies). The FACS Canto-II with FACS Diva software was used to analyzed only EGFP positive cells stained with caspase-9, both were excited with the 488 nm (emission filter 530/35) and the 561 nm laser (emission filter 585/15), respectively. Independent transfections of each construct were assayed three times (n=3). The highest value (EGFP positive cells stained with caspase-9) was set as 100% and the lowest as 0% (relative caspase-9).

T47D cells [2] = assay: TUNEL assay in T47D cells; assay type: cell-based, human; conditions: 48 h after transfection
Protocol: T47D cells were harvested 48 h after transfection. In situ Death Detection Kit, TMR red (Roche, Mannheim, Germany) was used following manufacturer's recommendations as before. Cells were resuspended in PBS (Invitrogen) and analyzed via the FACSAria-II (BD-Biosciences, University of Utah Core Facility). EGFP and TMR red were excited at 488 nm and 563 nm, respectively, and FACSDiva software was used to analyze the data. Independent transfections of each construct were tested three times (n=3).

T47D cells [3] = assay: 7-AAD assay in T47D cells; assay type: cell-based, human; conditions: 48 h after transfection, EGFP positive cells only
Protocol: (§1) Transfected T47D, MCF-7, MDA-MB-231, HeLa and H1373 cells were pelleted and resuspended in 500 μL PBS (Invitrogen) containing 1 μM 7-aminoactinomycin D (7-AAD) (Invitrogen) for 30 min prior to analysis following the recommended protocol from the manufacturer. The assay was performed 48 h after transfection for T47D, MCF-7 and H1373 and 24 h after transfection for MDA-MB-231 and HeLa. Only EGFP positive cells were analyzed by using the FACS Canto-II (BD-BioSciences) with FACS Diva software. EGFP and 7-AAD were excited with the 488 nm laser, and were detected at 507 nm and 660 nm, respectively. Independent transfections of each construct were tested three times (n=3).
(§2) Transfected T47D, H1373, SKOV-3 and HeLa cells were pelleted and re-suspended in 500 μL PBS (Invitrogen) containing 1 μM 7-aminoactinomycin D (7-AAD) (Invitrogen) for 30 min prior to analysis. T47D and H1373 cells were analyzed 48 h after transfection, while SKOV-3 and HeLa cells were analyzed 24 h after transfection (time points optimized empirically). Only EGFP positive cells were assayed using the FACS Canto-II (BD-BioSciences) with FACS Diva software as previously. EGFP and 7-AAD were excited at 488 nm, and detected at 507 nm and 660 nm, respectively. Independent transfections of each construct were assayed three times (n=3). The highest value (EGFP positive cells stained with 7-AAD) was set at 100%, and the lowest at 0% (relative 7-AAD) as previously.

T47D cells [4] = assay: Rescue experiment using BFP-Bcl-XL (7-AAD) in T47D cells; assay type: cell-based, human; conditions: 48 h after transfection, Bcl-XL overexpression
Protocol: T47D cells were co-transfected with 1 pmol of EGFP constructs and 1 pmol of BFP-Bcl-XL (BFP tag is necessary for gating Bcl-XL transfected cells). 48 h after transfection the 7-AAD assay was performed as described above. FACSCanto-II (BD-BioSciences) and FACSDiva software were used for EGFP and BFP gating. Excitation was set at 488 nm, and detected at 507 nm and 660 nm for EGFP and 7-AAD, respectively. BFP was excited at 405 nm and detected at 457 nm. Independent transfections of each construct were tested three times (n=3).

H1373 cells [5] = assay: 7-AAD assay in H1373 cells; assay type: cell-based, human; conditions: H1373 (p53 null), 48 h after transfection
Protocol: as §1, §2

H1373 cells [6] = assay: 7-AAD rescue experiment in H1373 cells with or without p53R248Wmut; assay type: cell-based, human; conditions: H1373, 48 h post transfection; for apoptotic activity (7-AAD) when co-transfected with p53R248Wmut: dominant negative mutant overexpressed
Protocol: E-XL was created by inserting MTS from XL into EGFP-C1 vector. Lipofectamine was used as the transfection reagent as before. 48 h post transfection, cells were stained as described in the 7-AAD assay and gated for EGFP and BFP using the FACSCanto-II (BD-BioSciences) and FACSDiva software. Excitation for BFP was set at 405 nm and detected at 457 nm. The means from three separate experiments (n=3) were analyzed using two-way ANOVA with Bonferroni's post hoc test.

MCF-7 = assay: 7-AAD assay in MCF-7 cells; assay type: cell-based, human; conditions: MCF-7, 48 h post transfection
Protocol: as §1

T47D cells [7] = assay: Colony forming assay in T47D cells; assay type: cell-based, human; conditions: eight days after treatment
Protocol: Transfected T47D cells were harvested 24 h post transfection and resuspended in RPMI (Invitrogen) at a concentration of 3.0×10^5 cells/mL. The Cytoselect® 96-well cell transformation assay (Cell Biolabs, San Diego, Calif.) was used following manufacturer's recommendations. Equal amount of 1.2% Agar Solution, 2×DMEM/20% FBS media, and cell suspension (1:1:1) were mixed and 75 μL of the mixture was added to a 96-well plate containing a solidified base agar layer (50 μL of previously solidified 1.2% Agar Solution), and allowed to solidify at 4° C. for 15 min. The following steps were performed according to the manufacture's recommendations. A Spectra Max M2 plate reader (Molecular Devices, Sunnyvale, Calif.) was used to detect fluorescence using a 485/520 nm filter set. Independent transfections of each construct were tested three times (n=3).

T47D cells [8] = assay: Annexin V assay in T47D cells; assay type: cell-based, human; conditions: 48 h after transfection
Protocol: 48 h after transfection, T47D cells were pelleted and resuspended in 400 μL of annexin-V binding buffer (Invitrogen) and incubated with 5 μL of annexin-APC (annexin-V conjugated to allophycocyanin, Invitrogen) for 15 min as before. Only transfected cells were analyzed as mentioned in 7-AAD assay. EGFP and APC were excited at 488 nm and 635 nm wavelengths, respectively and detected at their corresponding 507 nm and 660 nm wavelengths. Independent transfections of each construct were tested three times (n=3).

MDA-MB-231 = assay: 7-AAD assay in MDA-MB-231 cells; assay type: cell-based, human; conditions: MDA-MB-231, 24 h after transfection
Protocol: as §1

HeLa cells = assay: 7-AAD assay in HeLa cells; assay type: cell-based, human; conditions: 24 h after transfection
Protocol: as §1, §2

p53-Luc Cis-Reporter = assay: p53 reporter gene (dual luciferase) assay in T47D cells; assay type: cell-based, human; conditions: 24 h post transfection
Protocol: Luminescence was detected 24 h post transfection using PlateLumino (Stratec Biomedical Systems, Birkenfeld, Germany). Independent transfections of each constructs were assayed three times (n=3). The highest value was set at 100% and lowest value (untreated cells) was set as 0% (relative luminescence).

SKOV-3 cells = assay: 7-AAD assay in SKOV-3 cells; assay type: cell-based, human; conditions: SKOV-3 (p53 null), 24 h after transfection
Protocol: as §2

T47D cells [9] = assay: TMRE assay (MOMP) in T47D cells; assay type: cell-based, human; conditions: 36 h after transfection
Protocol: 36 h after transfection T47D cells were incubated with 100 nM tetramethylrhodamineethylester (TMRE) (Invitrogen) for 30 min at 37° C. T47D cells were pelleted and resuspended in 300 μL annexin-V binding buffer (1×) (Invitrogen). Only EGFP positive cells were analyzed by using the FACS Canto-II (BD-BioSciences) with FACS Diva software. EGFP was excited with the 488 nm laser with emission filter 530/35 and TMRE was excited with the 561 nm laser with the emission filter 585/15. Mitochondrial depolarization (loss in TMRE intensity) correlates with an increase in MOMP. Independent transfections of each construct were tested three times (n=3).
36 h after transfection T47D cells were incubated with 100 nM tetramethylrhodamine, ethylester (TMRE) (Invitrogen) for 30 min at 37° C., pelleted and resuspended in 300 μL annexin-V binding buffer (1×) (Invitrogen). The FACS Canto-II with FACS Diva software was used to analyze only EGFP positive cells (excited at 488 nm with emission 530/35) stained with TMRE (excited at 561 nm laser with the emission 585/15). Loss in TMRE intensity represents mitochondrial depolarization, which correlates with an increase in mitochondrial outer membrane permeabilization (MOMP). Independent transfections of each construct were assayed three times (n=3). The highest MOMP value was set as 100% and the lowest as 0% (relative MOMP) as before.

endogenous Bcl-XL = molecular target: T1, endogenous Bcl-XL (Homo sapiens, UniProt Q07817); assay: Co-immunoprecipitation with anti-GFP antibody, western blot for Bcl-XL; assay type: binding; conditions: T47D lysate 24 h post transfection, anti-GFP pull-down
T1 construct: endogenous in cells; host or cells: T47D human breast tumor cells
Protocol: Anti-GFP antibody (ab290, Abcam) was coupled to dynabeads using Dynabeads Antibody Coupling Kit (Invitrogen). 24 h post transfection, T47D cells were prepared using the Dynabeads Co-Immunoprecipitation Kit (Invitrogen). Cell pellets were lysed using extraction buffer B (1×IP, […] NaCl, 2 mM MgCl2, 1 mM DTT, 1% protease inhibitor). The lysate was incubated for 30 min at 4° C. with 1.5 mg of dynabeads coupled with anti-GFP antibody, and co-IP was performed per the company's protocol. The final protein complex was denatured and western blot was performed by using Bcl-XL antibody (ab 2568, Abcam).

| Substance | caspase-9 activation (T47D cells [1]) | TUNEL positive cells (DNA fragmentation) (T47D cells [2]) | 7-AAD positive cells (late apoptosis) (T47D cells [3]) | apoptotic activity (7-AAD) on cotransfection of BFP-Bcl-XL (rescue) (T47D cells [4]) | 7-AAD positive cells (late apoptosis) (H1373 cells [5]) | apoptosis (7-AAD) in the absence of p53R248Wmut (H1373 cells [6]) | apoptotic activity (7-AAD) when co-transfected with p53R248Wmut (H1373 cells [6]) | 7-AAD positive cells (late apoptosis) (MCF-7) | transformative ability (colonies, relative fluorescence units) (T47D cells [7]) | Annexin V positive cells (apoptotic potential) (T47D cells [8]) | 7-AAD positive cells (late apoptosis) (MDA-MB-231) | 7-AAD positive cells (late apoptosis) (HeLa cells) | nuclear transcriptional activity (relative luminescence) (p53-Luc Cis-Reporter) | 7-AAD positive cells (late apoptosis) (SKOV-3 cells) | % MOMP induction (loss of TMRE fluorescence) (T47D cells [9]) | co-immunoprecipitation with Bcl-XL (endogenous Bcl-XL) |
| --- | --- | --- | --- | --- | --- | --- | --- | --- | --- | --- | --- | --- | --- | --- | --- | --- |
| DBD-XL: EGFP, DNA binding domain of p53 and MTS from Bcl-XL | higher caspase-9 activation than E-XL | not statistically significant from each other | statistically higher than the negative control E-XL; also recorded: not statistically significant from each other | significantly reduced | significantly higher apoptotic activity compared to p53-XL | significantly higher apoptosis compared to their negative controls E-XL and EGFP | capable of rescuing apoptotic activity | significantly higher apoptotic activity compared to p53-XL | significant decrease in transformative ability | significantly higher apoptotic response than p53-XL; also recorded: significantly higher than the negative control E-XL | significantly higher apoptotic activity compared to p53-XL | statistically significant from p53-XL | – | – | – | – |
| p53-BakMTS: MTS from Bak fused to the C-terminus of EGFP-p53 | significant effect; also recorded: not significantly higher from wt p53 | – | significant apoptotic effect compared to their corresponding negative controls; also recorded: significantly higher apoptosis compared to cells transfected with MTS negative controls; also recorded: induce apoptosis similarly to wt p53 | – | statistically higher from their negative control E-BakMTS | – | – | – | – | – | – | significant from their corresponding negative controls | no nuclear activity | significantly higher than their negative control E-BakMTS | not significantly higher from wt p53 | – |
| p53-XL: full length p53 with EGFP on the amino terminus and the MTS from Bcl-XL (XL) on the C-terminus | higher caspase-9 activation than E-XL; also recorded: triggers caspase-9 activation significantly more than DBD-XL | not statistically significant from each other | not statistically significant from each other | significantly reduced | – | significantly higher apoptosis compared to their negative controls E-XL and EGFP | capable of rescuing apoptotic activity | – | significant decrease in transformative ability | significantly higher than the negative control E-XL | – | – | – | – | – | co-immunoprecipitated; also recorded: co-immunoprecipitates with endogenous Bcl-XL |
